Data taken from ChEMBL document CHEMBL5614434, “A Lysosome-Targeting hNEU1 Inhibitor Treats Myocardial Infarction: A Potential Therapeutic Breakthrough” (J Med Chem, 2024).
The source made the active and inactive calls. The rule behind the calls is not given here.

Key:
H9c2 [1] = assay: Cytotoxicity against rat H9c2 cells assessed as cell viability at 0.001 to 50 uM under normoxia condition by CCK-8 method; assay type: toxicity, cell-based; conditions: h9c2, 50 µM, dose 0.001-50 µM
H9c2 [2] = assay: Induction of apoptosis in isoproterenol-induced rat H9c2 cells assessed as early apoptotic cells at 0.1 micromol/L by annexin V-FITC and PI staining based flow cytometry analysis (reference value: 10.37%); assay type: toxicity, cell-based; conditions: h9c2, 0.1 µM, dose 0.1 µmol/L
H9c2 [3] = assay: Induction of apoptosis in isoproterenol-induced rat H9c2 cells assessed as late apoptotic cells at 0.1 micromol/L by annexin V-FITC and PI staining based flow cytometry analysis (reference value: 11.49%); assay type: toxicity, cell-based; conditions: h9c2, 0.1 µM, dose 0.1 µmol/L
H9c2 [4] = assay: Induction of ATP production in isoproterenol-induced rat H9c2 cells at 0.1 micromol/L by fluorescence based analysis; assay type: functional; conditions: dose 0.1 µmol/L
H9c2 [5] = assay: Inhibition of ROS production in isoproterenol-induced rat H9c2 cells assessed as reduction in DCF value at 0.1 uM by DCFH-DA staining based flow cytometry analysis (reference value: 371.9); assay type: functional
H9c2 [6] = assay: Induction of autophagy in isoproterenol-induced rat H9c2 cells assessed as increase in LC3-I to LC3-II conversion by confocal microscopy based analysis; assay type: functional, cell-based
H9c2 [7] = assay: Induction of autophagy in isoproterenol-induced rat H9c2 cells assessed as downregulation of PARP1 expression by Western blot analysis; assay type: functional, cell-based
H9c2 [8] = assay: Induction of autophagy in isoproterenol-induced rat H9c2 cells assessed as downregulation of P62 expression by Western blot analysis; assay type: functional, cell-based
[9] = Toxicity in isoproterenol-induced male C57/6J mouse model assessed as recovery of growth rate at 15 mg/kg, ip pretreated with isoproterenol for 3 days followed by compound addition and measured after 3 days; assay type: organism-based; conditions: in vivo, 72 h, time 3 day
Mus musculus [10] = assay: Cardioprotective activity against isoproterenol-induced myocardial injury in C57/6J mouse model assessed as reduction in cardiac swelling size at 15 mg/kg, ip pretreated with isoproterenol for 3 days followed by compound addition and measured after 3 days (reference value: 5.15 millimeter); assay type: functional; conditions: time 3 day
Mus musculus [11] = assay: Cardioprotective activity against isoproterenol-induced myocardial injury in C57/6J mouse model assessed as decrease in heart weight ratio at 15 mg/kg, ip pretreated with isoproterenol for 3 days followed by compound addition and measured after 3 days (reference value: 0.56 %); assay type: functional; set-up: scale not given: the % may be the effect or the level left; conditions: time 3 day
Mus musculus [12] = assay: Cardioprotective activity against isoproterenol-induced myocardial injury in C57/6J mouse model assessed as suppression of mTORC1 overexpression at 15 mg/kg, ip pretreated with isoproterenol for 3 days followed by compound addition and measured after 3 days by immunohistochemistry analysis; assay type: functional, organism-based; conditions: time 3.0 day
Mus musculus [13] = assay: Cardioprotective activity against isoproterenol-induced myocardial injury in C57/6J mouse model assessed as reduction in CK value in serum at 15 mg/kg, ip pretreated with isoproterenol for 3 days followed by compound addition and measured after 3 days by automatic biochemical analysis; assay type: functional, organism-based; conditions: time 3.0 day
Mus musculus [14] = assay: Cardioprotective activity against isoproterenol-induced myocardial injury in C57/6J mouse model assessed as decrease in CK-MB level in serum at 15 mg/kg, ip pretreated with isoproterenol for 3 days followed by compound addition and measured after 3 days by automatic biochemical analysis; assay type: functional, organism-based; conditions: time 3.0 day
Mus musculus [15] = assay: Cardioprotective activity against isoproterenol-induced myocardial injury in C57/6J mouse model assessed as effect on cTNI level in serum at 15 mg/kg, ip pretreated with isoproterenol for 3 days followed by compound addition and measured after 3 days by automatic biochemical analysis; assay type: functional, organism-based; conditions: time 3.0 day
[16] = Permeability of compound in MDCK cells; assay type: ADME, cell-based, Canis lupus familiaris; conditions: dog, read-out: permeability
[17] = Passive permeability in MDCK cells; assay type: ADME, cell-based, Canis lupus familiaris; conditions: dog, read-out: permeability

Row | Structure (SMILES) | Activity (H9c2 [1]) | Activity (H9c2 [2]) [%] | Activity (H9c2 [3]) [%] | Activity (H9c2 [4]) [nmol/mg] | Activity (H9c2 [5]) | Activity (H9c2 [6]) | Activity (H9c2 [7]) | Activity (H9c2 [8]) | Activity [9] | Activity (Mus musculus [10]) [mm] | Activity (Mus musculus [11]) [%] | Activity (Mus musculus [12]) | Activity (Mus musculus [13]) | Activity (Mus musculus [14]) | Activity (Mus musculus [15]) | Papp [16] [×10⁻⁶ cm/s] | Papp [17] [×10⁻⁶ cm/s]
1 | CCC(CC)O[C@@H]1C=C(C(=O)OCCc2ccncc2)C[C@H](N)[C@H]1NC(C)=O | Non-Toxic | – | – | – | – | – | – | – | – | – | – | – | – | – | – | – | –
2 | CCOC(=O)C1=C[C@@H](OC(CC)CC)[C@H](NC(C)=O)[C@@H](N)C1 [OSELTAMIVIR] | Non-Toxic | 2.78 | 8.91 | 38.3 | 309.1 | inactive | Active | Active | Non-Toxic | 4.65 | 0.5 | Active | Active | Active | Active | 58 | > 20
